According to patent US20260373434A1, “QUICK DISSOLVABLE MICRONEEDLE WITH ENHANCED MECHANICAL STRENGTH, ITS COMPOSITIONS AND METHOD FOR FABRICATION THEREOF” (TRANSFORM SCITECH PRIVATE LIMITED, priority 2023, published 2026):
Structures can show the parent of a compound that is named as a salt.

How the values were obtained:
[1] = in vitro drug release study (Franz diffusion cell, pH 7.4); format: physicochemical; details: pH 7.4, 37 °C
Method: • Equipment: Franz diffusion cell shown in FIG. 38. • Dissolution medium: Physiological buffer solution pH (7.4) • Temperature: 37±0.2 °C. • Rotational speed: 100 rpm • Mode of sample analysis for Salbutamol sulphate—HPLC-UV analysis using RP C18 250X 4.6 mm; 5-micron, 100 A column and 87 parts of ammonium acetate buffer (pH 3.0, 20 mM) with sodium hexane sulfonate in combination with 13 parts of acetonitrile as a mobile phase. • Mode of sample analysis for Lorazepam—UV analysis, absorbance 280 nm • Mode of sample analysis for Cetirizine dihydrochloride—UV analysis, absorbance 276 nm • Mode of sample analysis for Ondansetran—UV analysis, absorbance 249 nm
Drug release at early time points was used to check the quick release characteristics. Salbutamol sulphate, Lorazepam and Cetirizine dihydrochloride which are soluble drugs released more than 80% achieving the quick release characteristics. Ondansetran which is a poorly soluble drug released about 30% in 20 minutes. Probably owing to its slow rate of dissolution. All drugs were analysed using appropriate UV/HPLC method as described in EXAMPLE 3. (FIGS. 39, 40, 41, 42, 43, 44)

[2] = drug classification and dissolution in the fabrication solvent; format: physicochemical; details: fabrication stage
Method: Salbutamol sulphate (Dose per patch 2.5 mg) and Lorazepam (Dose per patch 4 mg) are BCS Class I drugs, Cetirizine dihydrochloride (Dose per patch 5 mg) is BCS class III and Ondansetron Hydrochloride (Dose per patch 16 mg) is BCS Class II. The various drugs were studied for suitability of incorporation into the Dissolving microneedle formulation.

In the case of `O=C(O)COCCN1CCN(C(c2ccccc2)c2ccc(Cl)cc2)CC1` (centres unmarked) [Cetirizine dihydrochloride], the Cetirizine dihydrochloride released ([1]; batch MN01/02/83A, early time points, UV 276 nm) is reported as “more than 80%”.
For `O=C1Nc2ccc(Cl)cc2C(c2ccccc2Cl)=NC1O` (centres unmarked) [Lorazepam], the Lorazepam released ([1]; batch MN01/02/82, early time points, UV 280 nm) was “more than 80%”.
With `Cc1nccn1CC1CCc2c(c3ccccc3n2C)C1=O` (centres unmarked) [Ondansetron Hydrochloride] the “dissolution of drug in the aqueous solvent during fabrication” value [2] was “remained dispersed” and the Ondansetran released ([1]; batch MN01/02/84, in 20 minutes, UV 249 nm) was “about 30%”.
With `CC(C)(C)NCC(O)c1ccc(O)c(CO)c1` (centres unmarked) [Salbutamol sulphate] the Salbutamol sulphate released ([1]; batches MN01/02/64, MN01/02/77/A, MN01/02/77/B, early time points, HPLC-UV) was “more than 80%”.
